Test results taken from patent US20200370045A1, “METHOD OF TREATING TYPE II DIABETES AND OBESITY AND METHOD OF SCREENING A MEDICAMENT FOR THE SAME” (Tsinghua University, priority 2017, published 2020).

How the values were obtained:
Format in all cases: in vivo
microRNA-708 [1] = assay: Obesity level of HFD-fed obese mice treated with antisense nucleic acid of microRNA-708; settings: 2-month old obese mice fed with HFD for two months; subcutaneously injected at 10 D/g weekly for four weeks; FIG. 13
From the text: (§1) A designed RNA sequence ([…] (SEQ ID NO: 2)), reverse complementary to microRNA-708, was subcutaneously injected at 10 D/g to 2-month old obese mice (fed with HFD for two months) weekly for four weeks.

microRNA-708 [2] = assay: Glucose tolerance test (GTT) in obese mice treated with antisense nucleic acid of microRNA-708; settings: obese mice treated with antisense nucleic acids; FIG. 14
Method: (§2) As obesity is closely related to type II diabetes, the present inventors also examined the role of microRNA-708 in insulin sensitivity, where insulin tolerance test (ITT) and glucose tolerance test (GTT) were adopted. ITTs of the microRNA-708 knockout mice were assayed 0, 15, 30, 60, and 90 min after an intraperitoneal injection of insulin (diluted as 0.5 U/ml in saline and dosed at 0.5-1.2 U insulin per kg body mass, e.g., 0.5 U insulin per kg body mass, […]) following a 4 h fast. GTTs of the microRNA-708 knockout mice were assayed 0, 15, 30, 60, and 90 min after an intraperitoneal injection of glucose (diluted as 20% glucose solution in saline and dosed at 0.5-2 g glucose per kg body mass, e.g., 1 g glucose per kg body mass) following overnight fast.
as §1

microRNA-708 [3] = assay: Insulin tolerance test (ITT) in obese mice treated with antisense nucleic acid of microRNA-708; settings: 2-month old obese mice fed with HFD for two months; subcutaneously injected at 10 D/g weekly for four weeks; FIG. 15
Method: as §2, §1

Sequence: CCCAGCUAGACUUGUAAGUCCUU [SEQ ID NO: 2]
- obesity levels (microRNA-708 [1]): declined distinctly
- glucose tolerance (microRNA-708 [2]): obvious relieved
- insulin tolerance symptoms (insulin resistance) (microRNA-708 [3]): significantly alleviated
